# Results published in patent US20220062240A1, “METHODS OF TREATING CANCER USING A CLK INHIBITOR” (BioSplice Therapeutics, Inc., priority 2018, published 2022).
# Where two headings read alike, the source gives them in different places.
# Assays:
# CLK2 = target: T1, CLK2 (Homo sapiens, UniProt P49760); experiment: CLK2 kinase activity assay (Z-lyte, Ser/Thr 6 peptide); type: biochemical; conditions: recombinant CLK2 kinase, ATP 60 μM; read-out: EC50
# T1 construct: purchased Thermo Fisher (Life Technologies), Z'-LYTE Kinase Assay Kits
# Protocol: All reactions were performed in duplicate.
# all 50 cell lines = experiment: CellTiter-Glo Viability Assay, average across all cell lines; type: cell-based; conditions: Homo sapiens; across all 50 cell lines; read-out: average EC50 for inhibition of cancer cell proliferation
# Method in brief: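 Luminescent ATP read-out (CellTiter-Glo) after a 4-day compound exposure at 37° C served as the viability measure. Cells were seeded at 300-3,000/well, compound wells run in duplicate against DMSO controls, and EC50 values came from fitted dose-response curves.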
# [1] = test system: pancreatic cancer (8 cell lines); experiment: CellTiter-Glo Viability Assay, pancreatic cancer; type: cell-based; conditions: Homo sapiens, inhibition of cancer cell proliferation
# [2] = test system: ovarian cancer (4 cell lines); experiment: CellTiter-Glo Viability Assay, ovarian cancer; type: cell-based; conditions: Homo sapiens, inhibition of cancer cell proliferation
# [3] = test system: colorectal cancer (6 cell lines); experiment: CellTiter-Glo Viability Assay, colorectal cancer; type: cell-based; conditions: Homo sapiens, inhibition of cancer cell proliferation
# [4] = test system: lung cancer (4 cell lines); experiment: CellTiter-Glo Viability Assay, lung cancer; type: cell-based; conditions: Homo sapiens, inhibition of cancer cell proliferation
# MCF7 = experiment: CellTiter-Glo Viability Assay, breast cancer; type: cell-based; conditions: Homo sapiens, 96 h; MCF7, breast cancer, four days; read-out: EC50
# MDA-MB-231-Luc = experiment: CellTiter-Glo Viability Assay, breast cancer; type: cell-based; conditions: Homo sapiens, 96 h; MDA-MB-231-Luc, breast cancer, four days; read-out: EC50
# HCC1599 = experiment: CellTiter-Glo Viability Assay, breast cancer; type: cell-based; conditions: Homo sapiens, 96 h; HCC1599, breast cancer, four days; read-out: EC50
# CAMA1 = experiment: CellTiter-Glo Viability Assay, breast cancer; type: cell-based; conditions: Homo sapiens, CAMA-1, 96 h; CAMA1, breast cancer, four days; read-out: EC50
# BT-549 = experiment: CellTiter-Glo Viability Assay, breast cancer; type: cell-based; conditions: Homo sapiens, 96 h; BT-549, breast cancer, four days; read-out: EC50
# T47D = experiment: CellTiter-Glo Viability Assay, breast cancer; type: cell-based; conditions: Homo sapiens, 96 h, breast cancer, four days, read-out: EC50
# ZR-75-1 = experiment: CellTiter-Glo Viability Assay, breast cancer; type: cell-based; conditions: Homo sapiens, 96 h; ZR-75-1, breast cancer, four days; read-out: EC50
# DU4475 = experiment: CellTiter-Glo Viability Assay, breast cancer; type: cell-based; conditions: Homo sapiens, DU-4475, 96 h; DU4475, breast cancer, four days; read-out: EC50
# [5] = test system: liver cancer (3 cell lines); experiment: CellTiter-Glo Viability Assay, liver cancer; type: cell-based; conditions: Homo sapiens, inhibition of cancer cell proliferation
# [6] = test system: prostate cancer (5 cell lines); experiment: CellTiter-Glo Viability Assay, prostate cancer; type: cell-based; conditions: Homo sapiens
# [7] = test system: haematopoietic & lymphoid tumors (13 cell lines); experiment: CellTiter-Glo Viability Assay, haematopoietic & lymphoid tumors; type: cell-based; conditions: Homo sapiens, inhibition of cancer cell proliferation
# CLK3 = CLK3 (Homo sapiens, UniProt P49761); experiment: CLK3 kinase activity assay (Z-lyte, Ser/Thr 18 peptide)
# CLK3, sequence (P49761 whole entry): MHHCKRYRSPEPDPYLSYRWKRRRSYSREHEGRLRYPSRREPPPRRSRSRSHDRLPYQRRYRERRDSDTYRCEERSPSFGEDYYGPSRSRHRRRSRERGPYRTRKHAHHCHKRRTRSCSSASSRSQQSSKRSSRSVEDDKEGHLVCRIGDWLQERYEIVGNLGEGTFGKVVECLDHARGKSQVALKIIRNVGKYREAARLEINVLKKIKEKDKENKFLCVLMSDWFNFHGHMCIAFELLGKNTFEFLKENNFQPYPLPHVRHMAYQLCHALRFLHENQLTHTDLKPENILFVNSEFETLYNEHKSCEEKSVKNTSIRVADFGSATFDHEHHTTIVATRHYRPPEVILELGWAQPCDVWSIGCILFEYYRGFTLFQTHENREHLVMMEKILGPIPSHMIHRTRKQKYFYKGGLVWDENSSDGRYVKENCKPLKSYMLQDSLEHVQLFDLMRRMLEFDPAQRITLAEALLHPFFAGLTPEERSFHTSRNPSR
# T1 sequence (P49760 whole entry): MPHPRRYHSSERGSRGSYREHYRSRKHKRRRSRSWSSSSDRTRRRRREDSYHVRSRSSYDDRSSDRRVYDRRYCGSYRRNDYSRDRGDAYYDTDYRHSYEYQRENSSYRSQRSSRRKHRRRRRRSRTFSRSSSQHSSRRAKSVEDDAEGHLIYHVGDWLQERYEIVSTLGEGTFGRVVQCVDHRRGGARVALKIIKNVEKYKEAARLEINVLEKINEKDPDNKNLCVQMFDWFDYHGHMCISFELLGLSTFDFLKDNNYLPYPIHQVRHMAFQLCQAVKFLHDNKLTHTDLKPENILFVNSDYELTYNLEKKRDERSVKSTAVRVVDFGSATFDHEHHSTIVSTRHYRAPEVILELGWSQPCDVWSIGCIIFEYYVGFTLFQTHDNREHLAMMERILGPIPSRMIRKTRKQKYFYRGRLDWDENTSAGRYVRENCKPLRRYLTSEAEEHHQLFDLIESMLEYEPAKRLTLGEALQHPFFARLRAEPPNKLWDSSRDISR
structure (smiles),measurement,setting,value
CS(=O)(=O)NCc1cc(F)cc(-c2nccc3[nH]c(-c4n[nH]c5ccc(-c6cncc(NC(=O)C7CCC7)c6)cc45)cc23)c1 [Compound 53],EC50,CLK2,9.7 nM
same,EC50,all 50 cell lines,2120 nM
same,EC50,"[1]; BXPC-3, BxPC3 cell line, read-out: Pancreatic cancer, EC50 BxPC3",3540 nM
same,EC50,"[1]; CAPAN-1, Capan1 cell line, read-out: Pancreatic cancer, EC50 Capan1",1810 nM
same,EC50,"[1]; Capan-2, Capan2 cell line, read-out: Pancreatic cancer, EC50 Capan2",3000 nM
same,EC50,"[1]; MIA PaCa-2 cell line, read-out: Pancreatic cancer, EC50 MIA PaCa-2",220 nM
same,EC50,"[1]; PANC 05.04 cell line, read-out: Pancreatic cancer, EC50 PANC 05.04",2120 nM
same,EC50,"[1]; PANC-1 cell line, read-out: Pancreatic cancer, EC50 PANC-1",> 10000 nM
same,EC50,"[1]; UPAFII cell line, read-out: Pancreatic cancer, EC50 UPAFII",1290 nM
same,EC50,"[2]; PA-1, PA1 cell line, read-out: Ovarian cancer, EC50 (μM) PA1",2.29 µM
same,EC50,"[2]; TOV112D, TOV-112D cell line, read-out: Ovarian cancer, EC50 (μM) TOV-112D",0.446 µM
same,EC50,"[2]; OV-90 cell line, read-out: Ovarian cancer, EC50 (μM) OV-90",1.6 µM
same,EC50,"[2]; OVCAR-3 cell line, read-out: Ovarian cancer, EC50 (μM) OVCAR-3",0.145 µM
same,EC50,"[3]; HCT-116, HCT116 cell line, read-out: Colorectal cancer, EC50 (μM) HCT116",0.749 µM
same,EC50,"[3]; HT-29, HT29 cell line, read-out: Colorectal cancer, EC50 (μM) HT29",8.88 µM
same,EC50,"[3]; SW-620, SW620 cell line, read-out: Colorectal cancer, EC50 (μM) SW620",0.385 µM
same,EC50,"[3]; DLD-1 cell line, read-out: Colorectal cancer, EC50 (μM) DLD-1",3.57 µM
same,EC50,"[3]; SW48 cell line, read-out: Colorectal cancer, EC50 (μM) SW48",0.861 µM
same,EC50,"[3]; SW480 cell line, read-out: Colorectal cancer, EC50 (μM) SW480",0.305 µM
same,EC50,"[4]; A-427, A427 cell line, read-out: Lung cancer, EC50 (μM) A427",0.23 µM
same,EC50,"[4]; HCC78, HCC-78 cell line, read-out: Lung cancer, EC50 (μM) HCC-78",0.961 µM
same,EC50,"[4]; NCI-H460 cell line, read-out: Lung cancer, EC50 (μM) NCI-H460",> 10 µM
same,EC50,"[4]; NCI-H522 cell line, read-out: Lung cancer, EC50 (μM) NCI-H522",0.327 µM
same,EC50,MCF7,6390 nM
same,EC50,MDA-MB-231-Luc,1500 nM
same,EC50,HCC1599,209 nM
same,EC50,CAMA1,340 nM
same,EC50,BT-549,761 nM
same,EC50,T47D,455 nM
same,EC50,ZR-75-1,1280 nM
same,EC50,DU4475,3130 nM
same,EC50,"[5]; SNU-398, SNU398 cell line, read-out: Liver cancer, EC50 SNU398",79 nM
same,EC50,"[5]; HEPG2 cell line, read-out: Liver cancer, EC50 HEPG2",2090 nM
same,EC50,"[5]; PLC/PRF/5 cell line, read-out: Liver cancer, EC50 PLC/PRF/5",> 10000 nM
same,EC50,"[6]; DU-145, read-out: Prostate cancer EC50 Du-145",1160 nM
same,EC50,"[6]; PC-3, PC3 cell line, inhibition of cancer cell proliferation, read-out: Prostate cancer EC50 PC3",473 nM
same,EC50,"[6]; 22Rv1 cell line, inhibition of cancer cell proliferation, read-out: Prostate cancer EC50 22Rv1",563 nM
same,EC50,"[6]; LNCap clone FGC cell line, inhibition of cancer cell proliferation, read-out: Prostate cancer EC50 LNCap clone FGC",2820 nM
same,EC50,"[6]; VCaP (Sigma) cell line, inhibition of cancer cell proliferation, read-out: Prostate cancer EC50 VCaP (Sigma)",2460 nM
same,EC50,"[7]; DND41, DND-41 cell line, read-out: Haematopoietic & Lymphoid tumors, EC50 (μM) DND-41",0.176 µM
same,EC50,"[7]; MV4-11, MV-4-11 cell line, read-out: Haematopoietic & Lymphoid tumors, EC50 (μM) MV-4-11",0.046 µM
same,EC50,"[7]; Rec1, REC-1 cell line, read-out: Haematopoietic & Lymphoid tumors, EC50 (μM) REC-1",7.2 µM
same,EC50,"[7]; SU-DHL-4, SUDHL4 cell line, read-out: Haematopoietic & Lymphoid tumors, EC50 (μM) SUDHL4",0.477 µM
same,EC50,"[7]; HL-60 cell line, read-out: Haematopoietic & Lymphoid tumors, EC50 (μM) HL-60",1.02 µM
same,EC50,"[7]; JM1 cell line, read-out: Haematopoietic & Lymphoid tumors, EC50 (μM) JM1",0.222 µM
same,EC50,"[7]; JURKAT, Clone E6-1 cell line, read-out: Haematopoietic & Lymphoid tumors, EC50 (μM) JURKAT, Clone E6-1",2.44 µM
same,EC50,"[7]; JeKo-1 cell line, read-out: Haematopoietic & Lymphoid tumors, EC50 (μM) JeKo-1",0.088 µM
same,EC50,"[7]; KASUMI-1 cell line, read-out: Haematopoietic & Lymphoid tumors, EC50 (μM) KASUMI-1",0.804 µM
same,EC50,"[7]; Loucy cell line, read-out: Haematopoietic & Lymphoid tumors, EC50 (μM) Loucy",0.15 µM
same,EC50,"[7]; MOLT-4 cell line, read-out: Haematopoietic & Lymphoid tumors, EC50 (μM) MOLT-4",2.02 µM
same,EC50,"[7]; TF-1 cell line, read-out: Haematopoietic & Lymphoid tumors, EC50 (μM) TF-1",4.7 µM
same,EC50,"[7]; TOLEDO cell line, read-out: Haematopoietic & Lymphoid tumors, EC50 (μM) TOLEDO",0.249 µM
same,EC50,CLK3,27.5 nM
